Laboratory results reported in US7704956B2, “Glutathione-based delivery system” (Industrial Technology Research Institute, priority 2005, dated 2010).

Key:
[1] = Pharmacokinetics of endomorphin-1 liposome (plasma, LC-MS/MS); assay type: in vivo, wistar mouse; details: 7.5 mg/kg, after 2 hr
Procedure: The plasma concentration of endomorphin-1 of a wistar mouse was analyzed by LC-MS/MS to study the pharmacokinetics of the endomorphin-1 liposome. […] However, the endomorphin-1 liposomes of Examples 14 and 17 prolonged the retention time of the endomorphin-1 in plasma to 24 hr. Also, T1/2 was prolonged from 6 min. to 2.4 hr and 1.8 hr, respectively.

[2] = Serum stability test of met-enkephalin liposome in fetal bovine serum; assay type: in vitro ADME; details: fetal bovine serum 1:1 (v/v), 37° C. water bath, 0, 1, 2 and 4 hours, gel filtration
Excerpt: The 2 carriers provided by Example 5 and fetal bovine serum (FBS) were mixed with 1:1 (v/v) to form a solution.

Row | Molecule | plasma concentration of endomorphin-1 [1] | residual concentration of met-enkephalin [2] [%]
1 | NC(=O)[C@H](Cc1ccccc1)NC(=O)[C@H](Cc1c[nH]c2ccccc12)NC(=O)[C@@H]1CCCN1C(=O)[C@@H](N)Cc1ccc(O)cc1 [endomorphin-1 solution, endomorphin-1] | no endomorphin-1 was detected | –
2 | met-enkephalin [free met-enkephalin] | – | 2
